# How the values were obtained:
# [1] = tested on: P. aeruginosa PAM1154 carrying wild-type KPC-2 (PAM4135); test: Checkerboard potentiation of antibiotic activity by BLIs; assay type: cell-based, Pseudomonas aeruginosa; details: PAM4135 KPC-2
# Description: (§1) BLI potency was defined as PV50 (PV, potentiation value) of antibiotic potentiation. PV50 is the concentration of a BLI that is required to reduce the antibiotic MIC to the middle of the MIC range where the highest MIC is the MIC for a KPC-producing strain with no inhibitor added and the lowest MIC is the MIC for the vector-alone strain, which corresponds to complete inhibition of KPC. As a given MIC is directly related to the β-lactamase activity, PV50 might be considered the concentration of a BLI that is required to achieve half-effect of inhibition of β-lactamase activity (in whole cells) to hydrolyze an antibiotic of interest. […] However, the accurate determination of PV50 requires the MIC range to be relatively wide.
# (§2) For microbiological studies, wild-type blaKPC-2 and its mutant variants were cloned into the shuttle vector pUCP24. Resulting plasmids were transformed in the efflux-deficient strain of P. aeruginosa PAM1154 using selection on 15 μg/ml of gentamicin. Using a strain of P. aeruginosa as opposed to E. coli as a host for various cloned genes was based on the following consideration. As well documented elsewhere ([41]), P. aeruginosa has a low-permeability outer membrane; consequently, the effect of β-lactamases on MIC is amplified in P. aeruginosa compared to that in E. coli due to the slowed uptake of β-lactams. Thus, this host is appropriate to detect β-lactamase activity (as an MIC increase) of low-catalytic-efficiency enzymes that rely heavily on low permeability of the outer membrane. […] MICs were determined using the Clinical and Laboratory Standards Institute (CLSI) broth microdilution method as described in CLSI document M07-A11 ([42]). […] BLI potency was defined as PV50 (PV, potentiation value). PV50 is the minimal concentration of a BLI that is required to reduce the antibiotic MIC to the middle of the MIC range (E50) where the highest MIC is the MIC for a KPC-producing strain with no inhibitor added and the lowest MIC is the MIC for the vector-only strain, corresponding to the complete inhibition of KPC. E50 is calculated as the square root of the product of the antibiotic MICs for the KPC-producing and the vector-only strains.
# (§3) […]
# (§4) […]
# [2] = tested on: P. aeruginosa PAM1154 carrying KPC-2::L169P (PAM4751); test: as above; assay type: cell-based, Pseudomonas aeruginosa; details: for PV50: PAM4751 KPC-2::L169P
# Description: as §1, §2, §3, §4
# [3] = tested on: P. aeruginosa PAM1154 carrying KPC-2::D179Y (PAM4639); test: as above; assay type: cell-based, Pseudomonas aeruginosa; details: for increase of PV50 vs wild-type KPC-2: D179Y; for PV50: PAM4639 KPC-2::D179Y
# Description: as §1, §2, §3, §4
# KPC-2 D179Y = target: T1, KPC-2 D179Y (Klebsiella pneumoniae, UniProt Q9F663, D178Y); details: D179Y substitution in KPC-2; cited from earlier work
# T1 construct: 6xHis (C); made in house; host or cells: E. coli BL21(DE3) pLys, pET28a
# T1 sequence (Q9F663 25-293 D178Y): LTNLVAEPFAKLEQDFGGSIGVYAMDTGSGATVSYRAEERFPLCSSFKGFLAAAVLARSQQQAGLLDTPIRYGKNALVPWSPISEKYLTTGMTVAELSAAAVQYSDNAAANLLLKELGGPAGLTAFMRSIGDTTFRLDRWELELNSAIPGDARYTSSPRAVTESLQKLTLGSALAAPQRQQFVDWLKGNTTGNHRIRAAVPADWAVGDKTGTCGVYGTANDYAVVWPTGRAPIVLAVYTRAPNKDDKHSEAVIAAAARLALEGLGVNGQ
# KPC-2 = target: T2, KPC-2 (Klebsiella pneumoniae, UniProt Q9F663); test: Inactivation kinetics (k2/K, k−2, Kd), nitrocefin reporter substrate method; assay type: biochemical; details: NCF hydrolysis, 37°C
# T2 construct: 6xHis (C); made in house; host or cells: E. coli BL21(DE3) pLys, pET28a
# T2 sequence (Q9F663 25-293 limits assumed): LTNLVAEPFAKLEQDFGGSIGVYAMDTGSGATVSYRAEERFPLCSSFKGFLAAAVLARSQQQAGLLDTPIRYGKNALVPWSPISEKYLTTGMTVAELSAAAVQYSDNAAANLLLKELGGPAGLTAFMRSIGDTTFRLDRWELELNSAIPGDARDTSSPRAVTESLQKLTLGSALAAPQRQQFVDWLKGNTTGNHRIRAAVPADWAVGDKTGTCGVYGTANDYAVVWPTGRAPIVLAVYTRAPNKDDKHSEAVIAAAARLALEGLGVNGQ
# Experimental: Inactivation kinetic parameters were determined by reporter substrate method for the slow tight binding inhibitor kinetic scheme ([45]). Protein was quickly mixed with 100 μM nitrocefin and various concentrations of BLI in reaction buffer, and absorbance at 490 nm was measured immediately every 2 s for 600 s on a SpectraMax plate reader (Molecular Devices, San Jose, CA) at 37°C. Resulting progression curves of OD490 versus time at various BLI concentrations were imported into Prism software (GraphPad, San Diego, CA), and pseudo-first-order rate constants (kobs) were calculated using the following equation: P=Vs×(1-e^-kobs^×^t)/kobs where Vs is enzyme nitrocefin cleavage rate in the absence of BLI. kobs values calculated at various vaborbactam concentrations were fitted in the following equation: kobs=k−2+k2/K×[I]/{1+[NCF]/Km(NCF)} where k2/K is the inactivation constant, [I] is inhibitor concentration, [NCF] is nitrocefin concentration, and Km(NCF) is the Michaelis constant of nitrocefin for KPC-2.
# [4] = tested on: P. aeruginosa PAM1154 carrying pUCP24 vector (PAM4175); test: MIC, CLSI broth microdilution; assay type: cell-based; details: Pseudomonas aeruginosa, drug alone
# Description: The effects of KPC mutations on resistance to various antibiotics were investigated. For these studies, pUCP24 plasmids carrying wild-type and mutant blaKPC-2 genes as well as the pUCP24 vector were transformed into PAM1154, an efflux-deficient strain of Pseudomonas aeruginosa. In this host, the effect of β-lactamases on β-lactam MIC is amplified due to the slowed uptake of β-lactams across the low-permeability outer membrane without interference by efflux of either β-lactams or BLIs. Consequently, this host allows detection of β-lactamase activity (as an MIC increase) of low-catalytic-efficiency enzymes that rely heavily on the low permeability of the outer membrane. Using the strain that lacks efflux pumps ensures no interference from efflux in interpreting results. We next evaluated the steady-state protein expression levels in bacterial cells. […] The observed discrepancy with our results could be attributed to the difference in either the expression vector or host bacteria.
# For microbiological studies, wild-type blaKPC-2 and its mutant variants were cloned into the shuttle vector pUCP24. Resulting plasmids were transformed in the efflux-deficient strain of P. aeruginosa PAM1154 using selection on 15 μg/ml of gentamicin. Using a strain of P. aeruginosa as opposed to E. coli as a host for various cloned genes was based on the following consideration. As well documented elsewhere ([41]), P. aeruginosa has a low-permeability outer membrane; consequently, the effect of β-lactamases on MIC is amplified in P. aeruginosa compared to that in E. coli due to the slowed uptake of β-lactams. Thus, this host is appropriate to detect β-lactamase activity (as an MIC increase) of low-catalytic-efficiency enzymes that rely heavily on low permeability of the outer membrane. […] MICs were determined using the Clinical and Laboratory Standards Institute (CLSI) broth microdilution method as described in CLSI document M07-A11 ([42]). Potentiation of antibiotic activity by various BLIs in bacterial strains carrying wild-type (WT) and mutant KPC-2 genes was performed using standard checkerboard methodology ([43]). BLI potency was defined as PV50 (PV, potentiation value). PV50 is the minimal concentration of a BLI that is required to reduce the antibiotic MIC to the middle of the MIC range (E50) where the highest MIC is the MIC for a KPC-producing strain with no inhibitor added and the lowest MIC is the MIC for the vector-only strain, corresponding to the complete inhibition of KPC. E50 is calculated as the square root of the product of the antibiotic MICs for the KPC-producing and the vector-only strains.
structure (smiles),measurement,setting,value
"NC(=O)[C@@H]1CC[C@@H]2CN1C(=O)N2OS(=O)(=O)O [Avibactam, avibactam]",PV50,[1]; potentiation of cefepime,0.25 µg/mL
same,PV50,[1]; potentiation of ceftazidime,0.125 µg/mL
same,increase of PV50 vs wild-type KPC-2,"[2]; L169P, cefepime",4 fold
same,PV50,[2]; potentiation of cefepime,1 µg/mL
same,PV50,[2]; potentiation of ceftazidime,2 µg/mL
same,PV50,[2]; potentiation of piperacillin,2 µg/mL
same,increase of PV50 vs wild-type KPC-2,[3]; cefepime,16 fold
same,increase of PV50 vs wild-type KPC-2,[3]; ceftazidime,32 fold
same,increase of PV50 vs wild-type KPC-2,[3]; piperacillin,4 fold
same,PV50,[3]; potentiation of cefepime,4 µg/mL
same,PV50,[3]; potentiation of ceftazidime,4 µg/mL
same,PV50,[3]; potentiation of piperacillin,1 µg/mL
same,decrease in the inactivation constant k2/K,KPC-2 D179Y,"70,000 fold"
same,k−2,KPC-2,3.3 ± 0.1 × 10^−4 s^−1
same,MIC,[4],128 µg/mL
